In patent publication US10947575B2, “Rapid antimicrobial susceptibility test, based on an analysis of changes in morphology and growth pattern of a microbial cell under different concentrations of various antimicrobial agents, and automated cell image analysis system therefor” (priority 2014, dated 2021):
Where two headings read alike, the source gives them in different places.

What was measured:
S. aureus ATCC 29213 [1] = settings: time to result 16~20 hr; cited from earlier work
E. coli ATCC 25922 [2] = experiment: AST by analysis of changes in morphology and growth pattern of a microbial cell (MAC 2.0 chip imaging); type: cell-based; settings: Normal / Filament / Swelling
From the text: (§1) Four reference strains (E. coli ATCC 25922, S. aureus ATCC 29213, P. aeruginosa ATCC 27853, and E. faecalis ATCC 29212) were used as objective strains, in accordance with Clinical and Laboratory Standards Institute (CLSI) guidelines. […] The bacterial cell in MAC 2.0TM (QuantaMatrix) was monitored through a S Plan Fluor ELWD 60X (NA 1.49) lens of an inverted optical microscope (Eclipse Ti-Nikon, IX71-Olympus) provided in a heating system, and then, an electron multiplying CCD camera (QuantEM:512SC Photometrics for Eclipse Ti) was used to obtain images of a region where is adjacent to an interface between the agarose well of MAC 2.0TM and the antimicrobial agents well, over time.

E. faecalis ATCC 29212 [3] = experiment: as above; type: cell-based; settings: RRG = relatively rapid growth, RSG = relatively slow growth
From the text: as §1

S. aureus ATCC 29213 [4] = experiment: as above; type: cell-based; settings: RRG = relatively rapid growth, RSG = relatively slow growth
From the text: as §1

E. coli ATCC 25922 [5] = settings: time to result 16~20 hr; cited from earlier work
E. faecalis ATCC 29212 [6] = settings: time to result 16~20 hr, cited from earlier work
E. coli ATCC 25922 [7] = experiment: MIC by the proposed method (SCMA), from morphology and growth pattern changes; type: cell-based; settings: time to result 3 hr
From the text: (§2) The bacterial cell in MAC 2.0™ (QuantaMatrix) was monitored through a S Plan Fluor ELWD 60X (NA 1.49) lens of an inverted optical microscope (Eclipse Ti—Nikon, IX71—Olympus) provided in a heating system, and then, an electron multiplying CCD camera (QuantEM:512SC Photometrics for Eclipse Ti) was used to obtain images of a region where is adjacent to an interface between the agarose well of MAC 2.0™ and the antimicrobial agents well, over time. […] In the AST method according to the inventive concept, minimal inhibitory concentration (MIC) was measured using the changes in morphology and growth pattern of the four reference strains (i.e., E. coli ATCC 25922, S. aureus ATCC 29213, P. aeruginosa ATCC 27853, and E. faecalis ATCC 29212) and was compared with MIC quality control (QC) per CLSI guidelines.

E. faecalis ATCC 29212 [8] = experiment: as above; type: cell-based; settings: time to result 4 hr
From the text: as §2

S. aureus ATCC 29213 [9] = experiment: as above; type: cell-based; settings: time to result 4 hr
From the text: as §2

P. aeruginosa ATCC 27853 [10] = experiment: AST by analysis of changes in morphology and growth pattern of a microbial cell (MAC 2.0 chip imaging); type: cell-based; settings: Normal / Filament / Swelling
From the text: as §1

P. aeruginosa ATCC 27853 [11] = experiment: MIC by the proposed method (SCMA), from morphology and growth pattern changes; type: cell-based; settings: time to result 3 hr
From the text: as §2

P. aeruginosa ATCC 27853 [12] = settings: time to result 16~20 hr; cited from earlier work

Row | Compound | CLSI QC range (MIC) (S. aureus ATCC 29213 [1]) | Criteria (change in morphology and growth pattern) (E. coli ATCC 25922 [2]) | Criteria (change in morphology and growth pattern) (E. faecalis ATCC 29212 [3]) | Criteria (change in morphology and growth pattern) (S. aureus ATCC 29213 [4]) | CLSI QC range (MIC) (E. coli ATCC 25922 [5]) | CLSI QC range (MIC) (E. faecalis ATCC 29212 [6]) | SCMA Results (MIC) (E. coli ATCC 25922 [7]) | SCMA Results (MIC) (E. faecalis ATCC 29212 [8]) | SCMA Results (MIC) (S. aureus ATCC 29213 [9]; unit assumed) [µg/mL] | Criteria (change in morphology and growth pattern) (P. aeruginosa ATCC 27853 [10]) | CLSI QC range (MIC) (E. faecalis ATCC 29212 [6]; unit assumed) [µg/mL] | SCMA Results (MIC) (E. coli ATCC 25922 [7]; unit assumed) [µg/mL] | SCMA Results (MIC) (P. aeruginosa ATCC 27853 [11]) | SCMA Results (MIC) (S. aureus ATCC 29213 [9]) | CLSI QC range (MIC) (P. aeruginosa ATCC 27853 [12])
1 | CC1(C)S[C@@H]2[C@H](NC(=O)[C@H](N)c3ccccc3)C(=O)N2[C@H]1C(=O)O [Ampicillin] | 0.5~2 | Filament | Normal | Normal | 2~8 | 0.5~2 | 2~4 | 0.5~1 | 1 |  |  |  |  |  | 
2 | Gentamicin | 0.12~1 | Normal | Normal | Normal growth | 0.25~1 |  |  | ≤ 500 µg/mL |  | Normal growth | ≤ 500 | 0.25 | 0.5~1 | 0.25~0.5 | 0.5~2
